# Values of other authors in patent US20020052320A1, “Sustained peptide-release formulation” (Peptech Limited, priority 1996, published 2002).
# Key:
# [1] = system: advanced prostatic cancer; conditions: monthly subcutaneous injections
# prostate cancer in rats = conditions: controlled dose over 30 days vs equivalent or double doses of free peptide
SMILES,efficacy compared with orchiectomy [1],tolerability [1],"suppression of prostate tumour weight, microencapsulated form vs daily subcutaneous free peptide (prostate cancer in rats)","suppression of serum testosterone levels, microencapsulated form vs daily subcutaneous free peptide (prostate cancer in rats)"
"CC(C)C[C@H](NC(=O)[C@@H](COC(C)(C)C)NC(=O)[C@H](Cc1ccc(O)cc1)NC(=O)[C@H](CO)NC(=O)[C@H](Cc1c[nH]c2ccccc12)NC(=O)[C@H](Cc1cnc[nH]1)NC(=O)[C@@H]1CCC(=O)N1)C(=O)N[C@@H](CCCNC(=N)N)C(=O)N1CCC[C@H]1C(=O)NNC(N)=O [goserelin, 3-[5-oxo-L-prolyl-L-tryptophyl-L-seryl-L-tyrosyl-(3-O-tert-butyl)-D-seryl-L-1eucyl-L-arginyl-L-prolyl]cabazamide acetate]",as effective as orchiectomy,well tolerated,–,–
"CC(C)C[C@H](NC(=O)[C@@H](Cc1c[nH]c2ccccc12)NC(=O)[C@H](Cc1ccc(O)cc1)NC(=O)[C@H](CO)NC(=O)[C@H](Cc1c[nH]c2ccccc12)NC(=O)[C@H](Cc1c[nH]cn1)NC(=O)[C@@H]1CCC(=O)N1)C(=O)N[C@@H](CCCNC(=N)N)C(=O)N1CCC[C@H]1C(=O)NCC(N)=O [triptorelin, 5-oxo-L-prolyl-L-histidyl-L-tryptophyl-L-seryl-L-tyrosyl-D-tryptophyl-L-leucyl-L-arginyl-L-prolylglycinamide]",–,–,more effective,more effective
